Experimental data from publication PMC8667045, “Into Deep Water: Optimizing BCL6 Inhibitors by Growing into a Solvated Pocket” (Journal of Medicinal Chemistry, 2021).
Converted amounts (≈) assume the structure as drawn. “And” between values parts separate entries of the source, which are not always exact repeats. Equal entries are not always repeated. Where two headings read alike, the source gives them in different places.

Legend:
HPLC solubility assay = assay type: physicochemical; conditions: PBS buffer, PBS pH 7.4, 1% DMSO, room temperature
Method: 3. Supplementary experimental: physicochemical assays […]
3.2 HPLC solubility assay
DMSO. Following shaking of the suspension on a Bohdan Shaker at 500 rpm for 2 hours at room […]
200 µL of the supernatant was transferred to a 2 mL Agilent vial containing 50 µL of DMSO (Sigma […]
detection using an external standard which was prepared by pipetting 10 µL of the same batch of […]
The detail of the HPLC method is as following: chromatographic separation at 30°C is carried out over a 5 minute gradient elution method from 90:10 to 10:90 water:methanol (both modified with 0.1% formic acid) at a flow rate of 1.5 mL/min. Calibration curve is prepared by injecting 0.5, 2.5, and 5 µL of compound external standard.
62.5 µL of compound solubility sample.

BCL6 BTB domain [1] = target: T1, BCL6 BTB domain (Homo sapiens, UniProt P41182); assay: biochemical; conditions: for BCL6 TR-FRET pIC50 mean: mean of n replicates
Method: Supplementary experimental: protein production, purification and crystallography
3C protease cleavage site.
used without cleaving the tag, as a 6His was needed to bind to the anti-6His-Terbium antibody. For
For both plasmid constructs described above, transformed BL21-AI E. coli cells were grown in LB
carried out at 18 °C for 18 hours. Cells were harvested by centrifugation (5500 g for 30 minutes at 4
oC) and stored at -80 °C.
Cells were re-suspended in a buffer composed of 20 mM Tris pH 8, 250 mM NaCl, 1 mM MgCl2, 0.5
Cells were lysed by sonication followed by centrifugation at 21,000 g for 45 minutes at 4 °C. […]
The final protein was assessed for purity
and molar mass by SDS-PAGE and high-resolution mass spectrometry, respectively.
(§1) directly eluted from the HisTrap FF column without HRV-3C treatment, and submitted to Superdex75
gel filtration as described above. […]
2. Supplementary experimental: biological assay conditions
IC50 values were determined using
a sigmoidal four-parameter logistic fit equation.

BCL6 BTB domain [2] = target: T1, BCL6 BTB domain; assay: Rapid X-ray screen: ligand density in extended pocket of BCL6 BTB domain; parameters: made in house; host or cells: E. coli BL21-AI; conditions: crystals soaked with compound
Excerpt: Furthermore, we speculated that these represent better starting points since the substituent can be modified further to derive additional interactions and more completely fill the extended pocket. […] Instead, we just checked for the presence of ligand density and, in particular, for electron density in the extended pocket.
as §1
gel filtration as described above.
NH2. A stock solution of WVIP peptide at 100 mM in 100 % DMSO was added to a 2 mg/mL solution
This mixture was then concentrated to a final
protein concentration of 4 mg/mL using a centrifugal concentrator with a 3 kDa molecular weight
complex plus 1 μL of a crystallisation solution consisting of 1 M K 2HPO4, 0.7 M NaH2PO4, 75 mM
drops, followed by 10-120 minutes incubation. Crystals were then cryo-protected in a solution
composed of the crystallisation reagent supplemented with 30 % ethylene glycol and cryo-cooled in
concentrated to a final protein concentration of 10 mg/mL using a centrifugal concentrator with a 3
kDa molecular weight cut-off. Crystals were grown at 18 °C in hanging drops composed of 1.5 μL of
and 0.80 M Na/K Tartrate, against 300 μL of crystallisation solution.
and compounds were soaked as described above for the other construct. Crystals were then cryo-
protected in a solution composed of the crystallisation reagent supplemented with 30 % ethylene
glycol and cryo-cooled in liquid nitrogen.
1.5 Crystallographic data collection, processing and refinement
X-ray data were collected at Diamond Light Source, Harwell campus, Oxfordshire, UK, on beamlines
Research, London, UK, on a Rigaku FRX-AFC11-VariMax Cu-VHF-Pilatus300K. Crystals obtained with […]

[3] = PAMPA passive permeability pH 7.4; conditions: for PAMPA7.4: pH 7.4, passive permeability Pe
NMR solubility assay = assay type: physicochemical; conditions: HEPES buffer, 5% DMSO, room temperature
Method: 3. Supplementary experimental: physicochemical assays
The plate was then sealed and incubated at room temperature for 20 hours, without shaking. The plate was centrifuged again for 1 minute at […]
spectrometer equipped with a 5 mm TCI-CryoProbe. […]
deuterated solvent. […] All NMR data were acquired at the […]
contained 16k time-domain data points. Relaxation delay was set to 20 sec. […]

Measured logD7.4 = assay type: physicochemical; conditions: pH 7.4
[4] = TR-FRET IC50 individual replicates, single replicates, italic values used 10nM BCL6, otherwise 1nM BCL6
[5] = read-out: BCL6 TR-FRET Geo Mean IC50, geometric mean of n replicates, supplement
[6] = read-out: TR-FRET IC50, tables and figures
[7] = read-out: TR-FRET IC50 individual replicates, single replicates, italic values used 10nM BCL6, otherwise 1nM BCL6

SMILES	solubility at 2 h (HPLC solubility assay) [µM]	IC50 (BCL6 BTB domain [1]; [4])	BCL6 TR-FRET pIC50 mean (BCL6 BTB domain [1])	IC50 (BCL6 BTB domain [1]; [5]) [nM]	IC50 (BCL6 BTB domain [1]; [6])	Ligand density in extended pocket (BCL6 BTB domain [2])	IC50 (BCL6 BTB domain [1]; [7])	Papp ([3]; PAMPA, pH 7.4) [×10⁻⁶ cm/s]	PAMPA7.4 [3]	solubility at 20 h (NMR solubility assay) [µM]	logD (Measured logD7.4)
Cn1c(=O)n(C)c2cc(Nc3ccnc(Cl)c3C#N)ccc21 [Compound 1]	16 (≈ 5.02 µg/mL)	–	–	–	–	–	–	–	–	–	–
Cn1c(=O)ccc2cc(Nc3ccnc(Cl)c3C#N)ccc21 [Compound 2, 2-Chloro-4-((1-methyl-2-oxo-1,2-dihydroquinolin-6-yl)amino)nicotinonitrile]	12 (≈ 3.73 µg/mL)	2280 nM and 4290 nM and 4070 nM and 1380 nM	5.57 and 5.565	2720	2700 nM and 2720 nM	–	–	–	–	–	–
N#Cc1c(Nc2ccc3[nH]c(=O)cc(N4CCOCC4)c3c2)ccnc1Cl [Compound 8d, 2-Chloro-4-((4-morpholino-2-oxo-1,2-dihydroquinolin-6-yl)amino)nicotinonitrile]	–	2660 nM and 2560 nM and 1470 nM	5.67 and 5.672	2130	2130 nM	No	2100 nM and 2080 nM	–	–	–	–
Cn1cc(-c2cc(=O)[nH]c3ccc(Nc4ccnc(Cl)c4C#N)cc23)cn1 [Compound 8e, 2-Chloro-4-((4-(1-methyl-1H-pyrazol-4-yl)-2-oxo-1,2-dihydroquinolin-6-yl)amino)nicotinonitrile]	–	1520 nM and 2190 nM	5.74 and 5.739	1820	1820 nM	Yes	–	–	–	–	–
CCNc1cc(=O)[nH]c2ccc(Nc3ccnc(Cl)c3C#N)cc12 [Compound 8f, 2-Chloro-4-((4-(ethylamino)-2-oxo-1,2-dihydroquinolin-6-yl)amino)nicotinonitrile]	–	1660 nM and 680 nM and 1950 nM and 1130 nM and 1050 nM and 1910 nM	5.883	1310	1310 nM	Yes	–	–	–	–	–
CNC(=O)C(C)Nc1cc(=O)[nH]c2ccc(Nc3ccnc(Cl)c3C#N)cc12 (stereo not drawn) [Compound 12a, 2-((6-((2-Chloro-3-cyanopyridin-4-yl)amino)-2-oxo-1,2-dihydroquinolin-4-yl)amino)-N-methylpropanamide]	37 (≈ 14.7 µg/mL)	620 nM and 490 nM and 580 nM and 510 nM and 660 nM and 470 nM and 460 nM and 500 nM and 740 nM and 480 nM and 650 nM	6.26 and 6.258	552	550 nM	–	–	< 0.2	–	–	–
CNC(=O)CNc1cc(=O)[nH]c2ccc(Nc3ccnc(Cl)c3C#N)cc12 [Compound 12e, 2-((6-((2-Chloro-3-cyanopyridin-4-yl)amino)-2-oxo-1,2-dihydroquinolin-4-yl)amino)-N-methylacetamide]	35 (≈ 13.4 µg/mL)	19900 nM and 74100 nM and 10200 nM and 22400 nM	4.62 and 4.623	23800	23800 nM	–	22800 nM	–	–	–	–
CC(Nc1cc(=O)n(C)c2ccc(Nc3ccnc(Cl)c3C#N)cc12)c1ncco1 (stereo not drawn) [Compound 13b, 2-Chloro-4-((1-methyl-4-((1-(oxazol-2-yl)ethyl)amino)-2-oxo-1,2-dihydroquinolin-6-yl)amino)nicotinonitrile]	2.8 (≈ 1.18 µg/mL)	–	–	–	–	–	–	–	1.0 x10^-6 cms^-1	–	–
CC(Nc1cc(=O)n(C)c2ccc(Nc3ccnc(Cl)c3C#N)cc12)c1ncccn1 (stereo not drawn) [Compound 13e, 2-Chloro-4-((1-methyl-2-oxo-4-((1-(pyrimidin-2-yl)ethyl)amino)-1,2-dihydroquinolin-6-yl)amino)nicotinonitrile]	–	–	–	–	–	–	–	–	1.4 x10^-6 cms^-1	249 (≈ 108 µg/mL)	1.4
Cn1c(=O)cc(NC(C)(C)c2ncccn2)c2cc(Nc3ccnc(Cl)c3C#N)ccc21 [Compound 13g, 2-Chloro-4-((1-methyl-2-oxo-4-((2-(pyrimidin-2-yl)propan-2-yl)amino)-1,2-dihydroquinolin-6-yl)amino)nicotinonitrile]	–	–	–	–	–	–	–	–	1.8 x10^-6 cms^-1	15 (≈ 6.69 µg/mL)	1.9
